Data: patent US20110092540A1, “SUBSTITUTED N-PHENYL-2,3-DIHYDROIMIDAZO[2,1-B]THIAZOLE-5-SULFONAMIDE DERIVATIVES AS 5-HT6 LIGANDS” (priority 2008, published 2011)
Where a name gives a salt, the structure may show the parent alone.

Columns and labels:
[1] = molecular target: T1, 5HT6-human recombinant receptor (Homo sapiens, UniProt P50406); test: Binding to serotonin receptor 5HT6 ([3H]-LSD radioligand displacement); set-up: purchased Receptor Biology; host or cells: HEK-293 cells (membranes); conditions: membranes of HEK-293 cells expressing 5HT6-human recombinant receptor; [3H]-LSD 2.7 nM; 60 min, 37° C.
T1 sequence (P50406 whole entry): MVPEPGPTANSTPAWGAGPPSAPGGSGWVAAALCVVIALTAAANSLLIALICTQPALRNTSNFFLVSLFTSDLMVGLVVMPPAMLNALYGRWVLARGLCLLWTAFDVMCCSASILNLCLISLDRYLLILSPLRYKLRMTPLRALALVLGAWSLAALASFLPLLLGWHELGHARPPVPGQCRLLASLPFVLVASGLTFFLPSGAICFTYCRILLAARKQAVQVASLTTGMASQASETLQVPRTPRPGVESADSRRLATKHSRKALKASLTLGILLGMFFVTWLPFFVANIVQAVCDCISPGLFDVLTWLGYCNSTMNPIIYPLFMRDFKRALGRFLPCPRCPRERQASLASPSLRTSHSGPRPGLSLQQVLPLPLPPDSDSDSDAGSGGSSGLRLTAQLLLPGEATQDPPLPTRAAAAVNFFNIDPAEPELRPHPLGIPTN
Experimental: Binding to Serotonin Receptor 5HT6
Cell membranes of HEK-293 cells expressing the 5HT6-human recombinant receptor were supplied by Receptor Biology. In said membranes the receptor concentration is 2.18 pmol/mg protein and the protein concentration is 9.17 mg/ml. The experimental protocol follows the method of B. L. Roth et al. [B. L. Roth et al., The Journal of Pharmacology and Experimental Therapeutics, 1994, 268. 1403] with the following slight changes. The respective part of the literature description is hereby incorporated by reference and forms part of the disclosure.
The commercial membrane is diluted (1:40 dilution) with the binding buffer: 50 mM Tris-HCl, 10 mM MgCl2, 0.5 mM EDTA (pH 7.4). The radioligand used is [^3H]-LSD at a concentration of 2.7 nM with a final volume of 200 μl. incubation is initiated by adding 100 μl of membrane suspension, (≈22.9 μg membrane protein), and is prolonged for 60 minutes at a temperature of 37° C. The incubation is ended by fast filtration in a Brandel Cell Harvester through fiber glass filters made by Schleicher & Schuell GF 3362 pretreated with a solution of polyethylenimine at 0.5%. The filters are washed three times with three milliliters of buffer Tris-HCl 50 mM pH 7.4. The filters are transferred to flasks and 5 ml of Ecoscint H liquid scintillation cocktail are added to each flask. The flasks are allowed to reach equilibrium for several hours before counting with a Wallac Winspectral 1414 scintillation counter. Non-specific binding is determined in the presence of 100 μM of serotonin. Tests were made in triplicate. The inhibition constants (Ki, nM) were calculated by non-linear regression analysis using the program EBDA/LIGAND described in Munson and Rodbard, Analytical Biochemistry, 1980, 107, 220, which is hereby incorporated by reference and forms part of the disclosure.

[2] = in words; Fisas, A. et al., Brit. J. Pharm. 2006; cited from earlier work
[3] = molecular target: T1, 5HT6-human recombinant receptor; conditions: in words; Fisas, A. et al., Brit. J. Pharm. 2006; cited from earlier work

Structure (SMILES)	Ki [1] [µM]	body weight [2]	food intake [2]	binding for the recombinant human 5-HT6 receptor [3]
O=C1CCc2ccc(NS(=O)(=O)c3c(Cl)nc4n3CCS4)cc21 [Compound 10, 6-Chloro-2,3-dihydro-imidazo[2,1-b] thiazole-5-sulfonic acid (3-oxo-indan-5-yl)-amide]	0.046	–	–	–
O=S(=O)(Nc1ccc2c(c1)CCNC2)c1c(Cl)nc2n1CCS2 [Compound 1, 6-Chloro-2,3-dihydro-imidazo[2,1-b] thiazole-5-sulfonic acid (1,2,3,4-tetrahydro-isoquinolin-6-yl)-amide hydrochloride]	0.0084	–	–	–
CN(C)CCc1c[nH]c2ccc(NS(=O)(=O)c3ccc4c(Cl)cccc4c3)cc12 [Compound E-6837, 5-chloro-N[3-(2-(dimethylamino)ethyl)-1H-indol-5-yl] naphthalene-2-sulphonamide]	–	significant body weight loss	reduction in the food intake	selective and high affinity binding
CC(=O)N1CCc2cc(NS(=O)(=O)c3c(Cl)nc4n3CCS4)ccc21 [Compound 4, 6-Chloro-2,3-dihydro-imidazo[2,1-b] thiazole-5-sulfonic acid (1-acetyl-2,3-dihydro-1H-indol-5-yl)-amide]	0.0054	–	–	–
CN(C)CCc1c[nH]c2ccc(NS(=O)(=O)c3c(Cl)nc4n3CCS4)cc12 [Compound 3, 6-Chloro-2,3-dihydro-imidazo[2,1-b] thiazole-5-sulfonic acid [3-(2-dimethylamino-ethyl)-1H-indol-5-yl]-amide hydrochloride]	0.0169	–	–	–
